Results taken from patent publication US9309286B2, “Compositions and methods for augmenting permeability barriers” (TUFTS MEDICAL CENTER, priority 2011, dated 2016).
Peptide text beside a SMILES is read from it.

Legend:
rats [1] = tested on: rats
rats [2] = assay: Evans Blue leak into lungs of rats after p38 inhibitor; settings: 1 μmol/kg

With `C[C@H](NC(=O)[C@H](C)NC(=O)[C@@H]1CCCN1C(=O)[C@H](C)NC(=O)CNC(=O)[C@H](CCCNC(=N)N)NC(=O)[C@H](CCCNC(=N)N)NC(=O)[C@@H](NC(=O)CNC(=O)[C@@H]1CCCN1C(=O)[C@@H](NC(=O)[C@H](CCCNC(=N)N)NC(=O)[C@H](CCCNC(=N)N)NC(=O)[C@H](C)NC(=O)[C@@H]1CCCN1C(=O)[C@H](CC(N)=O)NC(=O)[C@H](CCCNC(=N)N)NC(=O)[C@@H]1CCCN1C(=O)[C@H](Cc1c[nH]cn1)NC(=O)[C@H](C)NC(=O)[C@H](CCCNC(=N)N)NC(=O)[C@H](C)NC(=O)[C@H](CCC(N)=O)NC(=O)[C@H](CCCNC(=N)N)NC(=O)[C@H](C)NC(=O)[C@H](C)NC(=O)[C@H](C)NC(=O)[C@H](CCCNC(=N)N)NC(=O)[C@H](C)NC(=O)[C@@H](N)Cc1ccc(O)cc1)[C@@H](C)O)[C@@H](C)O)C(N)=O` [MK2-activating peptide] (H-YARAAARQARAHPRNPARRTPGTRRGAPAA-NH2) the “Lung weight/body weight, peptide alone” value (rats [1]) was “no significant effect”.

With `C[S+]([O-])c1ccc(-c2nc(-c3ccncc3)c(-c3ccc(F)cc3)[nH]2)cc1` (centres unmarked) [SB203580] the “Leak of intravenously injected Evans Blue into lungs” value (rats [2]) was “increase in leak”.
